Measurements taken from ChEMBL document CHEMBL1139939, “Synthesis and biological activity of naphthalene analogues of phenstatins: naphthylphenstatins” (Bioorg Med Chem Lett, 2007).

Tests used:
Tubulin (Homo sapiens) [1] = molecular target: T1, Tubulin (Homo sapiens) (UniProt P68371+Q9H4B7+P0DPH7+P68366+Q13509+Q71U36+P04350+Q3ZCM7+P07437+P68363+Q9BQE3+Q6PEY2+Q13885+Q9BVA1+Q9BUF5); experiment: Inhibition of tubulin polymerization at 20 uM; type: protein-complex assay
HeLa = experiment: Cytotoxicity against human HeLa cells; type: functional, cell-based
A549 = experiment: Cytotoxicity against human A549 cells; type: functional, cell-based
HT-29 = experiment: Cytotoxicity against human HT29 cells; type: functional, cell-based
Tubulin (Homo sapiens) [2] = molecular target: T1, Tubulin (Homo sapiens); experiment: Inhibition of tubulin polymerization at 40 uM; type: protein-complex assay

Compound | inhibition (Tubulin (Homo sapiens) [1]) [%] | IC50 (HeLa) [nM] | IC50 (A549) [nM] | IC50 (HT-29) [nM] | inhibition (Tubulin (Homo sapiens) [2]) [%]
COc1ccc(C(OC(C)=O)c2ccc3ccccc3c2)c(OC)c1OC (centres undefined) | 26 | 2700 | > 10000 | > 10000 | 
COc1ccc(/C=C\c2cc(OC)c(OC)c(OC)c2)cc1O [COMBRETASTATIN A4] |  |  |  | 3 | 
COc1ccc(C(=O)c2ccc3ccccc3c2)c(OC)c1OC | 4 | 1700 | > 10000 | > 10000 | 
COc1cc(C(OC(C)=O)c2ccc3ccccc3c2)cc(OC)c1OC (centres undefined) | 5 | 3800 | > 10000 | > 10000 | 
COc1cc(C(=O)c2ccc3ccccc3c2)cc(OC)c1OC |  | 42 | 250 |  | 100
COc1ccc(C(O)c2ccc3ccccc3c2)c(OC)c1OC (centres undefined) | 0 | > 10000 | > 10000 | > 10000 | 
COc1cc(/C=C\c2ccc3ccccc3c2)cc(OC)c1OC [NAPHTHYLCOMBRETASTATIN] |  | 20 | 20 | 20 | 
COc1cc(C(O)c2ccc3ccccc3c2)cc(OC)c1OC (centres undefined) |  |  |  |  | 0
